Test results: patent publication US20240003884A1, “METHODS AND COMPOSITIONS USING NON-INVASIVE PLASMA GLYCOMIC AND METABOLIC BIOMARKERS OF POST-TREATMENT CONTROL OF HIV” (priority 2020, published 2024)

Columns and labels:
[1] = tested on: J-Lat 10.6 cells (latent HIV provirus); settings: J-Lat clone 10.6
Protocol: (§1) (FIG. 2A) JLat 5A8 or 10.6 clones were stimulated with appropriate stimuli in the presence or absence of L-glutamic acid or vehicle control (cell culture suitable HCl solution). Geometric mean fluorescence intensity (MFI) of HIV-regulated GFP expression was measured by flow cytometry. Cell viability was determined by LIVE/DEAD aqua staining. (FIG. 2B) J-Lat 5A8 cells (n=3) and (FIG. 2C) J-Lat 10.6 cells (n=3), were treated with PMA/I (2 nM/500 nM), ImmunoCult Human CD3/CD28 T Cell Activator (25 μl per 10^6 cells), or TNFα (10 ng/ml) in the presence or absence of L-glutamic acid (5 mM) or appropriate control. Bar graphs display mean±SD values, and statistical comparisons were performed using two-tailed unpaired t-tests. (FIG. 2D) THP-1 cells were differentiated into macrophage-like cells using PMA. Cells were then treated with L-glutamic acid (5 mM), Pyruvic acid (2 mM), or appropriate controls for 2 hours prior to LPS/IFNγ stimulation for 5 hours. […] Bar graphs display mean±SD, and statistical comparisons were performed using two-tailed unpaired t-tests. […] Bar graphs display mean±SD, and statistical comparisons were performed using two-tailed unpaired t-tests.

[2] = tested on: J-Lat 5A8 cells (latent HIV provirus); settings: J-Lat clone 5A8
Protocol: as §1
Bar graphs display mean±SD values, and statistical comparisons were performed using two-tailed unpaired t-tests.

[3] = tested on: THP-1 derived macrophage-like cells; experiment: LPS/IFNγ-mediated cytokine secretion from THP-1 derived macrophage-like cells (MSD multiplex, ELISA); format: cell-based; settings: 2 h before LPS/IFNγ for 5 h
Protocol: as §1
In-vitro examination of the impact of L-glutamic acid and pyruvate on myeloid inflammation. THP1 cells were plated in 24-well plates at a density of 7×10^5 cells per well. To differentiate them into macrophages-like, 100 nM of PMA (Sigma catalog #P8139) was added and incubated for 72 hours. After incubation, media was aspirated, and each well was gently washed twice with R10 media. Cells were then rested for 24 hours on R10 media without PMA. After 24 hours, cells were washed again with serum-free RPMI 1640 media and kept on this media for the rest of experiment. Macrophage-like THP1 cells were pre-incubated with L-glutamic acid (5 mM) or Sodium Pyruvate solution (2 mM, Sigma catalog #S8636-100 ml) for 2 hours before stimulating with Escherichia coli serotype O127:B8 LPS (50 ng/ml; Sigma catalog #L3129-10MG) and IFNγ (10 ng/ml; R&D Systems catalog #285-IF-100, respectively). After 5 hours of incubation with LPS/IFNγ, culture supernatants were collected for cytokine quantitation. Supernatant levels of IL-10, IL-12p70, IL-13, IL-1β, IL-2, IL-4, IL-6, and IL-8 were determined using U-PLEX Proinflam Combo 1 (Meso Scale Diagnostic #K15049k-1) according to manufacture. Levels of TNF-α were quantified using DuoSet ELISA kits (R&D Systems catalog #DY210-05).
Beyond the direct impact on latent viral reactivation, plasma metabolites may exert effects on myeloid inflammation, and such effects may underlie HIV control during ATI. This possibility was tested by examining the effects of L-glutamic acid and pyruvate on lipopolysaccharides (LPS)-mediated secretion of pro-inflammatory cytokines from THP-1 derived macrophage-like cells. These cells are characterized by high basal glycolytic activity, which closely reflects the Warburg-like phenotype observed in HIV-infected individuals37. […] Cells were treated with L-glutamic acid, pyruvate, or appropriate controls for 2 h before stimulating with LPS and IFNγ for 5 h (FIG. 2D).

[4] = L-glutamic acid 5 mM with stimuli
[5] = L-glutamic acid 5 mM, 24 hours, vs stimuli alone
[6] = pyruvate 2 mM, listed as Pyruvate

Structure (SMILES) | Cell viability (LIVE/DEAD aqua staining) [1, 4] | PMA/ionomycin-induced reactivation of latent HIV (GFP MFI) [1, 5] | TNFα-induced reactivation of latent HIV (GFP MFI) ([1]; TNFα 10 ng/ml, L-glutamic acid 5 mM, 24 hours) | Cell viability (LIVE/DEAD aqua staining) [2, 4] | PMA/ionomycin-induced reactivation of latent HIV (GFP MFI) [2, 5] | αCD3/αCD28-induced reactivation of latent HIV (GFP MFI) [2, 5] | LPS/IFNγ-mediated IL-6 secretion ([3]; L-glutamic acid 5 mM) | LPS/IFNγ-mediated TNFα secretion ([3]; L-glutamic acid 5 mM) | LPS/IFNγ-mediated anti-inflammatory IL-10 production ([3]; L-glutamic acid 5 mM) | LPS/IFNγ-mediated IL-6 secretion ([3]; pyruvate 2 mM) | LPS/IFNγ-mediated TNFα secretion ([3]; pyruvate 2 mM) | LPS/IFNγ-mediated IL-6 secretion [3, 6] | LPS/IFNγ-mediated TNFα secretion [3, 6]
N[C@@H](CCC(=O)O)C(=O)O [L-glutamic acid] | without impacting viability | inhibited | inhibited | without impacting viability | significantly inhibited | significantly inhibited | significantly inhibited | significantly inhibited | significantly increased |  |  |  | 
CC(=O)C(=O)O [pyruvate, Pyruvic acid] |  |  |  |  |  |  |  |  |  | increased | increased | significantly increased | significantly increased
